Data taken from publication PMC11305403, “Design, synthesis, and antiproliferative screening of new quinoline derivatives bearing a cis-vinyl triamide motif as apoptosis activators and EGFR-TK inhibitors” (RSC Advances, 2024).

Experiments:
MCF-7 cell line = assay: MTT cytotoxic / antiproliferative activity against MCF-7 cell line; type: cell-based; details: for IC50: MTT assay, MCF-7 breast adenocarcinoma cells, 24 h treatment; for fold more potent antiproliferative activity than the reference STU: MCF-7, relative to STU IC50
Protocol: S4.2.1. Cytotoxic activity evaluation […]
adenocarcinoma (MCF-7) cell line. Cell viability assay was assessed using MTT assay […]
under 5% CO2. After incubation, the cells were treated with different concentrations of the test hybrid 5 and 6a-h and incubated for 24 h, then 20 µl of MTT solution at 5 […]
Dimethyl sulphoxide (DMSO) in […]
volume of 100 µl was added to each well to dissolve the purple formazan that had formed. The color intensity of the formazan product, which represents the growth […]
570 nm absorbance. The experimental conditions were carried out with at least three replicates, and the experiments were repeated at least three times. […]

MCF-7 cells [1] = assay: Mitochondrial membrane potential (MMP) by flow cytometry in MCF-7 cells; type: cell-based
Source text: A major part of apoptosis process is played by mitochondria.[46] Several active proteins such as cytochrome C and factor that induces apoptosis are two of the active proteins found in mitochondria.[47] The release of such proteins after inhibition of mitochondrial membrane potential (MMP) is crucial in the propagation of apoptosis.[48] […] This decrease in MMP was linked to an increase in Annexin V positive cells. […] According to this, quinoline tethered [2-(4-methoxyphenyl)-cis-vinyl] triamide 6f cause MCF-7 cells to become dysfunction in their mitochondria, which in turn trigger apoptotic cellular death. These outcomes were consistent with early findings that EGFR-TK inhibitors promote apoptosis via the mitochondrial route.

MCF-7 cells [2] = assay: Annexin V-FITC/PI apoptosis assay by flow cytometry in MCF-7 cells; type: cell-based; details: 48 h
Protocol: Apoptosis play an important role in organogenesis and in crafting complex tissues during embryonic growth, and in the preservation of tissue homeostasis in adult organism.[44] Numerous clinical disorders, including cancer, autoimmune illness and infectious diseases, are characterised by the deregulation of apoptosis.[45] To ensure the ability of quinoline tethered [2-(4-methoxyphenyl)-cis-vinyl] triamide 6f to activate apoptosis, flow cytometric measurement was carried out using Annexin V which binds to phophatidylserine declared on the outer layed of apoptotic cells and appears fluorescent green and PI which stains DNA and penetrates only dead cells. […] Meanwhile, the proportion of late apoptotic cells rose from 0.21% to 16.65% compared to DMOS controls (Fig. 4). […]
S4.2.3. Apoptosis assay for compound 6f
Apoptosis in MCF-7 cells was investigated using fluorescent Annexin V-FITC/ PI detection kit (BioVision Annexin V-FITC Apoptosis Detection Kit, Catalog #: K101) by flow cytometry assay. MCF-7 cells at a density of 2 × 10^5 per well were treated with compound 6f at the IC50 (µM) for 48 h, then the cells were harvested and stained with Annexin V-FITC/ PI dye for 15 min in the dark at 37 °C. The samples were immediately analyzed using FACS Calibur flow cytometer (Becton and Dickinson, […]
S4.2.4. EGFR kinase Assay […]
according to manufacturer’s instructions using # BPS Bioscience EGFR Kinase Assay

EGFR tyrosine kinase = target: T1, EGFR tyrosine kinase (Homo sapiens, UniProt P00533); assay: EGFR kinase assay (BPS Bioscience EGFR Kinase Assay Kit); type: biochemical; details: read-out: EGFR inhibitory activity IC50
T1 construct: purchased BPS Bioscience 40321
T1 sequence (P00533 25-1210): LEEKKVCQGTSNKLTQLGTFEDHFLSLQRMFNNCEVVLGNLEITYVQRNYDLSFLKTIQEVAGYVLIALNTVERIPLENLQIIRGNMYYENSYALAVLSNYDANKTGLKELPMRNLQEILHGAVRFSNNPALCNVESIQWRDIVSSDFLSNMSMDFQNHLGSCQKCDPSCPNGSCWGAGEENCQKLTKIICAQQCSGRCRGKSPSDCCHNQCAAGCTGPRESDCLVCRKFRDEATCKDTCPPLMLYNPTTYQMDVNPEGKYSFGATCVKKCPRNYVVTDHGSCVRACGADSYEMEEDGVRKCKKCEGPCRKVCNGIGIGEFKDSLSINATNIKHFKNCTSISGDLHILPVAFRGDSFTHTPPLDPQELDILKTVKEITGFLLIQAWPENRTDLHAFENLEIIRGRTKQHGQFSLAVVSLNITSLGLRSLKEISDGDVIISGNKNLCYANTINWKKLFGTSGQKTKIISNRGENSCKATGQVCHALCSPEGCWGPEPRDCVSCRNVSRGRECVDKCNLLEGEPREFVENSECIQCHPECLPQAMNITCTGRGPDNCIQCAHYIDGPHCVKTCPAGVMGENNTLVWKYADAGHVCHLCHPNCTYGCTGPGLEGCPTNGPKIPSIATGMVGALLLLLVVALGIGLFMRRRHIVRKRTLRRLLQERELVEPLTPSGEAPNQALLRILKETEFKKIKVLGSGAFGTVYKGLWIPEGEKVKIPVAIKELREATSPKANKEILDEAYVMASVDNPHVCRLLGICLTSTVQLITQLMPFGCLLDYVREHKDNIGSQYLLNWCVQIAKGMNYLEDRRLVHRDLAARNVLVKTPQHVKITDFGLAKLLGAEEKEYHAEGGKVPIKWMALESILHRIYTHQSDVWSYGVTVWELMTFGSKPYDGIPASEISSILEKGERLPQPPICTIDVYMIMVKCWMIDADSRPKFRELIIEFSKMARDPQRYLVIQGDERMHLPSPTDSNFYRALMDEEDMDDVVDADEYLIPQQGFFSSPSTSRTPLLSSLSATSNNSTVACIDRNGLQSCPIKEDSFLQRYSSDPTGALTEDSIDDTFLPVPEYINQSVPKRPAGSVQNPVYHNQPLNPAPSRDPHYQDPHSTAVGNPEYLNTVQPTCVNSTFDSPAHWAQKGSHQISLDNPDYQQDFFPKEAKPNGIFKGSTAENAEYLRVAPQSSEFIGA
Source text: immediately analyzed using FACS Calibur flow cytometer (Becton and Dickinson,
S4.2.4. EGFR kinase Assay
(1 picture or pasted object on this page, not shown here)

MCF-7 cells [3] = assay: Cell cycle analysis by flow cytometry (PI staining) in MCF-7 cells; type: cell-based; details: MCF-7, 1.87 μM, 48 h
Source text: The cell cycle is related to a series of events responsible for cell division and duplication.[42] The cell cycle presents three distinct phases: G1, S and G2/M phase.[43] Due to the importance of the cell cycle in the process of tumor progression, we evaluated if the cell growth inhibition in MCF-7 occurred due to cell cycle arrest using FACS method. In the present study, flow cytometric measurement was utilized to investigate the effect of quinoline tethered [2-(4-methoxyphenyl)-cis-vinyl] triamide 6f on cellular cycle progression in tested breast cancer cells. In the test, MCF-7 cells were treated with quinoline tethered [2-(4-methoxyphenyl)-cis-vinyl] triamide 6f at a concentration of 1.87 μM, then incubated for 48 h. The cellular cycle distribution was analyzed to identify the definite phase at which quinoline tethered [2-(4-methoxyphenyl)-cis-vinyl] triamide 6f can arrest the cell cycle. […] It is observed that the percentage of cells at G1 phase was increased by 1.2-fold compared to controls (Fig. 3).
S4.2.1. Cytotoxic activity evaluation
To measure the cytotoxic actvity of the prepared derivatives 5 and 6a-h in breast adenocarcinoma (MCF-7) cell line. Cell viability assay was assessed using MTT assay method. Cells at density of 1 x 104 were seeded in a 96-well plate at 37 °C for 24 h under 5% CO2. After incubation, the cells were treated with different concentrations of the test hybrid 5 and 6a-h and incubated for 24 h, then 20 µl of MTT solution at 5 mg/mL was applied and incubated for 4 h at 37 °C. […] The color intensity of the formazan product, which represents the growth condition of the cells, is quantified by using an ELISA plate reader (EXL 800, USA) at 570 nm absorbance. […]
Cell cycle analysis in MCF-7 cells was investigated using fluorescent […] (BioVision EZCellTM Cell Cycle Analysis Kit Catalog #K920) by flow cytometry assay. […] The samples were immediately analyzed using Facs Calibur flow cytometer (Becton and Dickinson, Heidelberg, […]

SMILES | melting point [°C] | IC50 (MCF-7 cell line; Homo sapiens, MCF7, 24 h) [µM] | fold more potent antiproliferative activity than the reference STU (MCF-7 cell line) | other results
O=C(NNC(=O)c1cc(-c2ccc(Br)cc2)nc2ccccc12)/C(=C/c1ccco1)NC(=O)c1ccccc1 [Compound 5, (Z)-N-(3-(2-(2-(4-Bromophenyl)quinoline-4-carbonyl)hydrazinyl)-1-(furan-2-yl)-3-oxoprop-1-en-2-yl)benzamide] | 188 to 190 | 6.6 ± 0.21 | 1.06–7.10 fold | 
O=C(NNC(=O)c1cc(-c2ccc(Br)cc2)nc2ccccc12)/C(=C/c1ccc(F)cc1)NC(=O)c1ccccc1 [Compound 6a, (Z)-N-(3-(2-(2-(4-Bromophenyl)quinoline-4-carbonyl)hydrazinyl)-1-(4-fluorophenyl)-3-oxoprop-1-en-2-yl)benzamide] | 177 to 179 | 59.8 ± 1.93 |  | 
O=C(NNC(=O)c1cc(-c2ccc(Br)cc2)nc2ccccc12)/C(=C/c1ccc(Cl)cc1)NC(=O)c1ccccc1 [Compound 6b, (Z)-N-(3-(2-(2-(4-Bromophenyl)quinoline-4-carbonyl)hydrazinyl)-1-(4-chlorophenyl)-3-oxoprop-1-en-2-yl)benzamide] | 185 to 187 | 8.29 ± 0.27 | 1.06–7.10 fold | 
O=C(NNC(=O)c1cc(-c2ccc(Br)cc2)nc2ccccc12)/C(=C/c1ccc(Br)cc1)NC(=O)c1ccccc1 [Compound 6c, (Z)-N-(1-(4-Bromophenyl)-3-(2-(2-(4-bromophenyl)quinoline-4-carbonyl)hydrazinyl)-3-oxoprop-1-en-2-yl)benzamide] | 191 to 193 | 19.2 ± 0.62 |  | 
O=C(NNC(=O)c1cc(-c2ccc(Br)cc2)nc2ccccc12)/C(=C/c1ccc([N+](=O)[O-])cc1)NC(=O)c1ccccc1 [Compound 6d, (Z)-N-(3-(2-(2-(4-Bromophenyl)quinoline-4-carbonyl)hydrazinyl)-1-(4-nitrophenyl)-3-oxoprop-1-en-2-yl)benzamide] | 207 to 209 | 12.4 ± 0.4 | 1.06–7.10 fold | 
Cc1ccc(/C=C(\NC(=O)c2ccccc2)C(=O)NNC(=O)c2cc(-c3ccc(Br)cc3)nc3ccccc23)cc1 [Compound 6e, (Z)-N-(3-(2-(2-(4-Bromophenyl)quinoline-4-carbonyl)hydrazinyl)-3-oxo-1-p-tolylprop-1-en-2-yl)benzamide] | 211 to 213 | 1.87 | 1.06–7.10 fold | IC50 (MCF-7 cell line): 3.03 ± 0.1 µM
COc1ccc(/C=C(\NC(=O)c2ccccc2)C(=O)NNC(=O)c2cc(-c3ccc(Br)cc3)nc3ccccc23)cc1 [Compound 6f, (Z)-N-(3-(2-(2-(4-Bromophenyl)quinoline-4-carbonyl)hydrazinyl)-1-(4-methoxyphenyl)-3-oxoprop-1-en-2-yl)benzamide] |  | 1.88 | 1.06–7.10 fold | decrease of MMP of MCF-7 cells compared to controls (percentage change value) (MCF-7 cells [1]; MCF-7, 1.87 μM (IC50 dose), vs DMSO controls): 57.93%; MMPΨ / MCF-7 (flow cytometry reading) (MCF-7 cells [1]; MCF-7, 1.87 μM, control 58497): 24610; percentage of primary (early) apoptotic cells (MCF-7 cells [2]; MCF-7, 1.87 μM (IC50), lower right quadrant, DMSO control 0.66%): 9.52%; proportion of late apoptotic cells (MCF-7 cells [2]; MCF-7, 1.87 μM (IC50), upper right quadrant, DMSO control 0.21%): 16.65%; fold increase of early apoptosis compared to controls (MCF-7 cells [2]; MCF-7, 1.87 μM): ~14.4 fold; fold increase of late apoptosis compared to controls (MCF-7 cells [2]; MCF-7, 1.87 μM): ~79.3 fold; IC50 (EGFR tyrosine kinase): 0.19 µM; IC50 (MCF-7 cell line): 1.87 ± 0.06 µM; fold increase of percentage of cells at G1 phase compared to controls (MCF-7 cells [3]): 1.2 fold; percentage of cells at G2/M phase (%DIP G2/M) (MCF-7 cells [3]; control 14.04%): 7.12%; percentage of cells at S phase (%DIP S) (MCF-7 cells [3]; control 34.30%): 29.32%
CC(=O)Oc1c(Br)cc(/C=C(\NC(=O)c2ccccc2)C(=O)NNC(=O)c2cc(-c3ccc(Br)cc3)nc3ccccc23)cc1Br [Compound 6g, (Z)-4-(2-Benzamido-3-(2-(2-(4-bromophenyl)quinoline-4-carbonyl)hydrazinyl)-3-oxoprop-1-enyl)-2,6-dibromophenyl acetate] | 181 to 183 | 30.4 ± 0.98 |  | 
COc1cc(/C=C(\NC(=O)c2ccccc2)C(=O)NNC(=O)c2cc(-c3ccc(Br)cc3)nc3ccccc23)cc(OC)c1OC [Compound 6h, (Z)-N-(3-(2-(2-(4-Bromophenyl)quinoline-4-carbonyl)hydrazinyl)-3-oxo-1-(3,4,5-trimethoxyphenyl)prop-1-en-2-yl)benzamide] | 169 to 171 | 15.6 ± 0.42 |  | 
